Test results taken from patent publication US6919334B2, “Antidepressant azaheterocyclymethyl derivatives of 4,5-dihydroimidazo[1,4,5-de][1,4]benzoxazine” (Wyeth, priority 2002, dated 2005).

Columns and labels:
[1] = biological target: T1, human 5-HT1A receptors (Homo sapiens, UniProt P08908); assay: [3H] 8-OHDPAT displacement from 5-HT1A receptor (transfected CHO cells); assay type: binding; conditions: percent displacement of [3H] 8-OHDPAT at 1 micromolar; CHO cells with human 5-HT1A
T1 construct: expressed in transfected cells; host or cells: CHO cells, stably transfected
T1 sequence (P08908 1-422): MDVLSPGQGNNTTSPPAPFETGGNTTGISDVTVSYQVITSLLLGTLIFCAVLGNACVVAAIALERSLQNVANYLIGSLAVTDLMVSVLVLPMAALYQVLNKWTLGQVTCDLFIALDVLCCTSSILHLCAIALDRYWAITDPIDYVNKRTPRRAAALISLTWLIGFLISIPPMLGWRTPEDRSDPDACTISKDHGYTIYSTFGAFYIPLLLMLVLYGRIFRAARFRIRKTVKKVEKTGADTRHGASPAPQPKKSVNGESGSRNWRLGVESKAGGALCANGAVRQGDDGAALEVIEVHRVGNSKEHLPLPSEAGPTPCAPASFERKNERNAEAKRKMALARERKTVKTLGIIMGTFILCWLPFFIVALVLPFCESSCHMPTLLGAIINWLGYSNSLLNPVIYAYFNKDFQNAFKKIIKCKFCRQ
Text: Affinity for the serotonin 5-HT1A receptor was established by testing the claimed compound's ability to displace [^3H] 8-OHDPAT (dipropylaminotetralin) from the 5-HT1A serotonin receptor following a modification of the procedure of Hall et al., J. Neurochem. 44, 1685 (1985), which utilizes CHO cells stably transfected with human 5-HT1A receptors.

[2] = biological target: T2, serotonin transporter (Rattus norvegicus, UniProt P31652); assay: 3H-paroxetine displacement, affinity for the serotonin transporter; assay type: binding
T2 construct: displace ^3H-paroxetine from male rat frontal cortical membranes; from tissue; host or cells: male rat frontal cortex membranes

[3] = biological target: T3, cloned human 5-HT1A receptors (Homo sapiens, UniProt P08908); assay: 35S-GTPγS binding assay, antagonist activity at 5-HT1A receptors; assay type: biochemical; conditions: reversal of agonist 8-OHDPAT; for IC50: membranes with cloned human 5-HT1A, read-out: 5-HT1A Function IC50; for 5-HT1A Function (Imax), maximum inhibitory effect: value in parentheses
T3 construct: expressed in transfected cells
T3 sequence (P08908 1-422): T1 sequence (P08908 1-422)
Description: Antagonist activity at 5-HT1A receptors was established by using a ^35S-GTPγS binding assay similar to that used by Lazareno and Birdsall (Br. J. Pharmacol. 109: 1120, 1993), in which the test compound's ability to affect the binding of ^35S-GTPγS to membranes containing cloned human 5-HT1A receptors was determined. Agonists produce an increase in binding whereas antagonists produce no increase but rather reverse the effects of the standard agonist 8-OHDPAT. The test compound's maximum inhibitory effect is represented as the Imax, while its potency is defined by the IC50.

T2 sequence (P31652 whole entry): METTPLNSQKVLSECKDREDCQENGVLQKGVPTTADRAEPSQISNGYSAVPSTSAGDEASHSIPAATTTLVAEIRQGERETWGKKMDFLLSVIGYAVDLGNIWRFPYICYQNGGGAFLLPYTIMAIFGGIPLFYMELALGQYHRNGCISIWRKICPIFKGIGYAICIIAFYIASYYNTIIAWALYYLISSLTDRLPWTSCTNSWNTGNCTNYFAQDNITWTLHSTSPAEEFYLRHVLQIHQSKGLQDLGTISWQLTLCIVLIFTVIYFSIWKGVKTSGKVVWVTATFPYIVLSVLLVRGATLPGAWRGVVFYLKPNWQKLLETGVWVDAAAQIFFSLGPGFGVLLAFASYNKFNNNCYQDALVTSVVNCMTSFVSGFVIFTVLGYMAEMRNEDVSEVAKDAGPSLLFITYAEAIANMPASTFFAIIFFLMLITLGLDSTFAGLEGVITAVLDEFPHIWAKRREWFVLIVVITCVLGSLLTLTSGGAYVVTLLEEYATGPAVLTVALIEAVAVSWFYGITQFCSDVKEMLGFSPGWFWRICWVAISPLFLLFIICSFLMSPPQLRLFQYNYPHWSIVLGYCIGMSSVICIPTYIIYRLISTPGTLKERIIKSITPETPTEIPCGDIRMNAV

Row | SMILES | 5-HT1A Receptor Affinity % @ 1 μM [1] | Ki [2] | IC50 [3] | 5-HT1A Function (Imax), maximum inhibitory effect [3] | melting point
1 | O=c1[nH]c2cccc3c2n1C(CN1CC=C(c2c[nH]c4c(F)cccc24)CC1)CO3 (stereo not drawn) [Example 5, 4-{[4-(7-Fluoro-1H-indol-3-yl)-3,6-dihydropyridin-1(2H)-yl]methyl}-4,5-dihydroimidazo[1,5,4-de][1,4]benzoxazin-2(1H)-one] | 48% | 1.23 nM | 750 nM | 100 | > 120 °C
2 | O=c1[nH]c2cccc3c2n1C(CN1CC=C(c2c[nH]c4ccc(F)cc24)CC1)CO3 (stereo not drawn) [Example 2] | 36% | 2.08 nM | 300 nM | 30 | 152 to 155 °C
3 | Cc1nc2cccc3c2n1C(CN1CC=C(c2c[nH]c4ccccc24)CC1)CO3 (stereo not drawn) [Example 6, 4-{[4-(1H-indole-3-yl)-3,6-dihydropyridin-1(2H)-yl]methyl}-2-methyl-4,5-dihydroimidazo[1,5,4-de][1,4]benzoxazine] | 39% | 1.86 nM | 450 nM | 100 | 222 to 225 °C
4 | N#Cc1ccc2[nH]cc(C3=CCN(CC4COc5cccc6[nH]c(=O)n4c56)CC3)c2c1 (stereo not drawn) [Example 4, 3-{1-[(2-Oxo-1,2,4,5-tetrahydroimidazo[1,5,4-de][1,4]benzoxazin-4-yl)methyl]-1,2,3,6-tetrahydropyridin-4-yl}-1H-indole-5-carbonitrile] | 49% | 3.55 nM | 750 nM | 100 | > 160 °C
5 | O=c1[nH]c2cccc3c2n1C(CN1CC=C(c2c[nH]c4ccccc24)CC1)CO3 (stereo not drawn) [Example 1, 4-{[4-(1H-indol-3-yl)-3,6-dihydropyridin-1(2H)-yl]methyl}-4,5-dihydroimidazo[1,5,4-de][1,4]benzoxazin-2(1H)-one] | 94% | 1.07 nM | 300 nM | 30 | 147 to 149 °C
6 | O=c1[nH]c2cccc3c2n1C(CN1CC=C(c2c[nH]c4ccc(Cl)cc24)CC1)CO3 (stereo not drawn) [Example 3, 4-{[4-(5-chloro-1H-indol-3-yl)-3,6-dihydropyridin-1(2H)-yl]methyl}-4,5-dihydroimidazo[1,5,4-de][1,4]benzoxazin-2(1H)-one] | 81% | 15 nM | 300 nM | 30 | 153 to 155 °C
